Holding throughout (assay type): cell-based
Data set [1] relates to human red blood cells (hRBC). The data set is described as follows: Hemolysis of human red blood cells. Conditions: red cells of human, 1 h. The protocol:
(§1) Lyophilized peptides were weighed on a Microbalance (Mettler MT5) and dissolved in sterile water to a final concentration of 1 mg/mL. Stock solutions were kept at +4° C., light protected.
The peptides were tested for their hemolytic activity against human red blood cells (hRBC). Fresh hRBC were washed three times with phosphate buffered saline (PBS) and centrifuged for 10 min at 2000×g. Compounds (100 μg/mL) were incubated with 20% hRBC (v/v) for 1 h at 37° C. and shaking at 300 rpm. The final erythrocyte concentration was approximately 0.9×10^9 cells/mL. A value of 0% and 100% cell lyses, respectively, was determined by incubation of hRBC in the presence of PBS containing 0.001% acetic acid and 2.5% Triton X-100 in H2O, respectively. The samples were centrifuged, the supernatants were 8-fold diluted in PBS buffer and the optical densities (OD) were measured at 540 nm. The 100% lyses value (OD540H2O) gave an OD540 of approximately 0.5-1.0.
Percent hemolysis was calculated as follows: (OD540peptide/OD540H2O)×100%.

For data set [2], the system named is Klebsiella pneumoniae SSI #3010. As to conditions: SSI #3010. The protocol: as §1
(§2) The in vitro antimicrobial activities of the peptides were determined in 96-well plates (Greiner, polystyrene) by the standard CLSI broth microdilution method (Clinical and Laboratory Standards Institute 2014. Performance standards for antimicrobial susceptibility testing, 24th informational supplement. Approved standard CLSI M100-S24; Clinical and Laboratory Standards Institute, Wayne, Pa.). Inocula of the microorganisms were diluted into Mueller-Hinton II (MH-cation adjusted) broth and compared with a 0.5 McFarland standard to give appr. 10^6 colony forming units (CFU)/mL. Aliquots (90 μL) of inoculate were added to 10 μL of MH-II broth+P-80 (Polysorbate 80, 0.002% final concentration, v/v) containing the peptide in serial two-fold dilutions. The following microorganisms were used to determine antibiotic activity of the peptides: Escherichia coli ATCC 25922, Klebsiella pneumoniae SSI #3010^a), Acinetobacter baumannii DSM 30008, Pseudomonas aeruginosa ATCC 27853 and the clinical isolates Escherichia coli 926415^b), Klebsiella pneumoniae 968733^b) and Acinetobacter baumannii 872842^b). Antimicrobial activities of the peptides were expressed as the minimal inhibitory concentration (MIC) in μg/mL at which no visible growth was observed after 18-20 hours of incubation at 35° C. ^a) Obtained from Statens Serum Institut (SSI), Copenhagen, Denmark^b) Obtained from International Health Management Associates, Inc. (IHMA Europe Sàrl), Epalinges, Switzerland

Data set [3] concerns Escherichia coli ATCC 25922. As to conditions: ATCC 25922. As to the method:
as §1, §2

Data set [4] deals with Pseudomonas aeruginosa ATCC 27853. As to conditions: ATCC 27853. The protocol: as §1, §2
In data set [5] the test system is Acinetobacter baumannii DSM 30008. As to conditions: DSM 30008. As to the method: as §1, §2

Data on six compounds can be found in patent publication US10829520B2, “Beta-hairpin peptidomimetics” (POLYPHOR AG, priority 2015, dated 2020).

*1 amine or outer side, *2 acyl side, *3 side chain or, on linkers, in order; H or OH if unused. Where a SMILES comes first, the peptide text is derived from it. Bridges are numbered along the chain shown (N, C = ends). Roman numbers before positions name the chains, in order. [ ]: non-standard residue; d: D form. X3 = CNCC[C@H](N[*:1])C(=O)[*:2]; Tle = CC(C)(C)[C@H](N)C(=O)O; dDab = NCC[C@@H](N)C(=O)O; Nle = CCCC[C@H](N)C(=O)O; Orn = NCCC[C@H](N)C(=O)O; Dab = NCC[C@H](N)C(=O)O; Dap = NC[C@H](N)C(=O)O

For `CCCC[C@@H]1NC(=O)[C@@H]2CCCN2C(=O)[C@H]2CCCN2C(=O)[C@H](CO)NC(=O)[C@H](C)NC(=O)[C@H](C(C)(C)C)NC(=O)[C@H](CCC(=O)N[C@@H](CCN)C(=O)N[C@H](C(=O)N[C@@H](CCN)C(=O)N[C@H]2CCNC(=O)[C@H]([C@@H](C)O)NC(=O)[C@H](CCN)NC(=O)[C@H](CCN)NC(=O)[C@H](CC(C)C)NC(=O)[C@@H](Cc3ccccc3)NC(=O)[C@H](CCN)NC2=O)[C@@H](C)O)NC(=O)[C@H](Cc2c[nH]c3ccccc23)NC(=O)[C@H](CCN)NC(=O)[C@@H](CCN)NC(=O)[C@H](CCCN)NC(=O)[C@H](CCN)NC(=O)[C@H](Cc2ccc(O)cc2)NC(=O)[C@H](CO)NC1=O` [Ex. 11] (I: cyclo(WE[Tle]AS[dP]P[Nle]SY[Dab][Orn][dDab][Dab]) / II: [Dab]T[Dab][Dab][Dab][dF]L[Dab][Dab]T; amide I:2-II:N; lactam II:4-II:C), the “Hemolysis at 100 μg/mL” value in data set [1] (100) was 1%. Further, in data set [2], the “Klebsiella pneumoniae SSI #3010 MIC” value came out at 1 µg/mL. For the same compound, the “Escherichia coli ATCC 25922 MIC” value in data set [3] is 2 µg/mL. Also, in data set [4], the “Pseudomonas aeruginosa ATCC 27853 MIC” value stood at 0.5 µg/mL. For the same compound, the “Acinetobacter baumannii DSM 30008 MIC” value in data set [5] is 1 µg/mL.
`CCCC[C@@H]1NC(=O)[C@@H]2CCCN2C(=O)[C@H]2CCCN2C(=O)[C@H](CO)NC(=O)[C@H](C)NC(=O)[C@H](C(C)(C)C)NC(=O)[C@@H](NC(=O)[C@H](Cc2c[nH]c3ccccc23)NC(C)=O)CSSC[C@@H](C(=O)N[C@@H](CNC(=O)[C@@H](N)CCC(=O)O)C(=O)N[C@H](C(=O)N[C@@H](CCN)C(=O)N[C@H]2CCNC(=O)[C@H]([C@@H](C)O)NC(=O)[C@H](CCN)NC(=O)[C@H](CCN)NC(=O)[C@H](CC(C)C)NC(=O)[C@@H](Cc3ccccc3)NC(=O)[C@H](CCN)NC2=O)[C@@H](C)O)NC(=O)[C@H](Cc2ccc(O)cc2)NC(=O)[C@H](CO)NC1=O` [Ex. 24] (Ac-WC[Tle]AS[dP]P[Nle]SYC[Dap](Glu)T[Dab][Dab][Dab][dF]L[Dab][Dab]T; disulfide 2-11; lactam 15-C): the “Hemolysis at 100 μg/mL” value in data set [1] (100 μg/mL) is 1%. Also, the “Klebsiella pneumoniae SSI #3010 MIC” value in data set [2] is 4 µg/mL. Further, the “Escherichia coli ATCC 25922 MIC” value in data set [3] was found to be 2 µg/mL. Moreover, the “Pseudomonas aeruginosa ATCC 27853 MIC” value in data set [4] was 4 µg/mL. Besides, the “Acinetobacter baumannii DSM 30008 MIC” value in data set [5] was determined as 2 µg/mL.
Take `CCCC[C@@H]1NC(=O)[C@@H]2CCCN2C(=O)[C@H]2CCCN2C(=O)[C@H](CO)NC(=O)[C@H](C)NC(=O)[C@H](C(C)C)NC(=O)[C@@H](NC(=O)[C@H](Cc2c[nH]c3ccccc23)NC(C)=O)CSSC[C@@H](C(=O)N[C@@H](CCCN)C(=O)N[C@@H](CCN)C(=O)N[C@H]2CCNC(=O)[C@H]([C@@H](C)O)NC(=O)[C@H](CCN)NC(=O)[C@H](CCN)NC(=O)[C@H](CC(C)C)NC(=O)[C@@H](Cc3ccccc3)NC(=O)[C@H](CCN)NC2=O)NC(=O)[C@H](Cc2ccc(O)cc2)NC(=O)[C@H](CO)NC1=O` [Ex. 55] (Ac-WCVAS[dP]P[Nle]SYC[Orn][Dab][Dab][Dab][dF]L[Dab][Dab]T; disulfide 2-11; lactam 14-C): the “Hemolysis at 100 μg/mL” value in data set [1] (100 μg/mL) amounted to 1%. Moreover, in data set [2], the “Klebsiella pneumoniae SSI #3010 MIC” value came out at 1 µg/mL. Moreover, in data set [3], the “Escherichia coli ATCC 25922 MIC” value was determined as 0.5 µg/mL. Moreover, the “Pseudomonas aeruginosa ATCC 27853 MIC” value in data set [4] was found to be 2 µg/mL. Further, the “Acinetobacter baumannii DSM 30008 MIC” value in data set [5] is 1 µg/mL.
For the compound `CCCC[C@@H]1NC(=O)[C@@H]2CCCN2C(=O)[C@H]2CCCN2C(=O)[C@H](CO)NC(=O)[C@H](C)NC(=O)[C@H](C(C)(C)C)NC(=O)[C@@H](NC(=O)[C@H](Cc2c[nH]c3ccccc23)NC(C)=O)CC(=O)NCC[C@@H](C(=O)N[C@@H](CCCN)C(=O)N[C@@H](CCN)C(=O)N[C@H]2CCNC(=O)[C@H]([C@@H](C)O)NC(=O)[C@H](CCN)NC(=O)[C@H](CCN)NC(=O)[C@H](CC(C)C)NC(=O)[C@@H](Cc3ccccc3)NC(=O)[C@H](CCN)NC2=O)NC(=O)[C@H](Cc2ccc(O)cc2)NC(=O)[C@H](CO)NC1=O` [Ex. 56] (Ac-WD[Tle]AS[dP]P[Nle]SY[Dab][Orn][Dab][Dab][Dab][dF]L[Dab][Dab]T; lactam 2-11, 14-C), the “Hemolysis at 100 μg/mL” value in data set [1] (100) is below 1%. Further, in data set [2], the “Klebsiella pneumoniae SSI #3010 MIC” value came to 4 µg/mL. Further, the “Escherichia coli ATCC 25922 MIC” value in data set [3] stood at 0.5 µg/mL. Further, the “Pseudomonas aeruginosa ATCC 27853 MIC” value in data set [4] came to 4 µg/mL. Besides, the “Acinetobacter baumannii DSM 30008 MIC” value in data set [5] was determined as 2 µg/mL.
With `CCCC[C@@H]1NC(=O)[C@@H]2CCCN2C(=O)[C@H]2CCCN2C(=O)[C@H](CO)NC(=O)[C@H](C)NC(=O)[C@H](C(C)(C)C)NC(=O)[C@H](CCN)NC(=O)[C@H](Cc2c[nH]c3ccccc23)NC(=O)[C@H](CCN)NC(=O)[C@@H](CCN)NC(=O)[C@H](CC(=O)N[C@H]2CCNC(=O)[C@H]([C@@H](C)O)NC(=O)[C@H](CCN)NC(=O)[C@H](CCN)NC(=O)[C@H](CC(C)C)NC(=O)[C@@H](Cc3ccccc3)NC(=O)[C@H](CCN)NC2=O)NC(=O)[C@H](CCN)NC(=O)[C@H](Cc2ccc(O)cc2)NC(=O)[C@H](CO)NC1=O` [Ex. 64] (I: cyclo([Nle]SY[Dab]D[dDab][Dab]W[Dab][Tle]AS[dP]P) / II: [Dab][Dab][dF]L[Dab][Dab]T; amide I:5-II:N; lactam II:1-II:C), in data set [1] (100), the “Hemolysis at 100 μg/mL” value is given as below 1%. Moreover, the “Klebsiella pneumoniae SSI #3010 MIC” value in data set [2] is 2 µg/mL. Moreover, the “Escherichia coli ATCC 25922 MIC” value in data set [3] was determined as 2 µg/mL. For the same compound, in data set [4], the “Pseudomonas aeruginosa ATCC 27853 MIC” value worked out at 4 µg/mL. The “Acinetobacter baumannii DSM 30008 MIC” value in data set [5] worked out at 1 µg/mL.
`CCCC[C@@H]1NC(=O)[C@@H]2CCCN2C(=O)[C@H]2CCCN2C(=O)[C@H](CO)NC(=O)[C@H](C)NC(=O)[C@H](C(C)(C)C)NC(=O)[C@H](CCN)NC(=O)[C@H](Cc2c[nH]c3ccccc23)NC(=O)[C@H](CCN)NC(=O)[C@@H](CCN)NC(=O)[C@H](CCC(=O)N[C@@H](CCNC)C(=O)N[C@H]2CCNC(=O)[C@H]([C@@H](C)O)NC(=O)[C@H](CCN)NC(=O)[C@H](CCN)NC(=O)[C@H](CC(C)C)NC(=O)[C@@H](Cc3ccccc3)NC(=O)[C@H](CCN)NC2=O)NC(=O)[C@H](CCN)NC(=O)[C@H](Cc2ccc(O)cc2)NC(=O)[C@H](CO)NC1=O` [Ex. 68] (I: cyclo(W[Dab][Tle]AS[dP]P[Nle]SY[Dab]E[dDab][Dab]) / II: [X3][Dab][Dab][dF]L[Dab][Dab]T; amide I:12-II:N; lactam II:2-II:C): in data set [1] (100), the “Hemolysis at 100 μg/mL” value is below 1%. In addition, in data set [2], the “Klebsiella pneumoniae SSI #3010 MIC” value is 2 µg/mL. Also, the “Escherichia coli ATCC 25922 MIC” value in data set [3] turned out to be 2 µg/mL. Also, the “Pseudomonas aeruginosa ATCC 27853 MIC” value in data set [4] stood at 0.5 µg/mL. Besides, the “Acinetobacter baumannii DSM 30008 MIC” value in data set [5] stood at 2 µg/mL.
